Assay results: patent US6403604B1, “Nitrogen-based camptothecin derivatives” (California Pacific Medical Center, priority 2001, dated 2002)
Where two headings read alike, the source gives them in different places.

Tests used:
C3H/HeJ mice = assay: in vivo
Experimental: (§1) This example provides directions for performing in vivo toxicity tests of the compounds of the invention on C3H/HeJ mice.
(§2) Acute toxicities of the compounds of this invention are evaluated on C3H/HeJ mice (body weight 18-22 g). The MTD40 (maximum tolerated dose at day 40) values are determined by the standard procedure described by Gad and Chengelis (see, for example, “Acute Toxicology Testing,” 2nd Ed., Shayne O. Gad and Christopher P. Chengelis, pp. 186-195 (Academic Press).) In the consecutive type studies, 2 mice are dosed at low and moderate doses of 40 and 100 mg/kg. If no severe and irreversible toxicity (euthanasia is required) occurs at these doses, a new pair of animals is initiated at 180 mg/kg, which is 1.8 times higher than 100 mg/kg. Sequential dosages (about 3 doses on 3 pairs of animals, i.e. 2 mice for each drug dose) are increased by a factor of 1.8 until severe and irreversible toxicity (euthanasia is required) occurred. Then another pair of animals is initiated at the highest nonlethal dosage, and successive dosages were increased by a factor of 1.15. The result of this exercise is two dosages, one apparently nonlethal and the other lethal if severe and irreversible toxicity occurs and euthanasia is required, separated by a factor of 1.15. Six mice are dosed at each dosage. If no severe and irreversible toxicity occurs at the lower dosage and at least one with severe and irreversible toxicity occurs at the higher dose, then the lower dose is considered to be the MTD. The compounds of this invention are administered to C3H/HeJ mice by intraperitoneal injection. Drug toxicity is evaluated on mice checked daily for 45 days. The toxicity parameters reported will be the MTD40.

HCT116 cells = assay type: cell-based; settings: 72 hours drug incubation, colonies counted after 7 days
Experimental: This example provides directions for growing cells and testing compounds of the invention for their effect on the growth of the cells.
Cell Colony Formation Assay
Four hundred cells (HCT 116, PC-3) or five hundred cells (VM46) were plated in 60 mm Petri dishes containing 2.7 ml of medium (modified McCoy's 5a medium) containing 10% fetal bovine serum and 100 units/ml penicillin and 100 mg/ml streptomycin. The cells were incubated in a CO2 incubator at 37° C. for 5 hours for attachment to the bottom of Petri dishes. Drugs were made fresh in medium at ten times the final concentration, and then 0.3 ml of this stock solution was added to the 2.7 ml of medium in the dish. The cells were then incubated with drugs for 72 hours at 37° C. At the end of the incubation the drug-containing media were decanted, the dishes were rinsed with 4 ml of Hank's Balance Salt Solution (HBSS), 5 ml of fresh medium was added, and the dishes were returned to the incubator for colony formation.
Values of ID50 (the drug concentration producing 50% inhibition of colony 5 formation) may be determined for each tested compound.

in vivo = settings: C3H/HeJ, mouse, in vivo, ip
Experimental: as §1, §2

[1] = test system: mouse leukemia L1210 system; settings: cited from earlier work
[2] = cited from earlier work
[3] = maximum tolerated dose, C3H/HeJ mice, intraperitoneal injection

| SMILES | MTD (C3H/HeJ mice; [3]) [mg/kg] | Survival (%) of HCT116 (HCT116 cells; 10 nM) [%] | Survival (%) of HCT116 (HCT116 cells; 100 nM) [%] | Survival (%) of HCT116 (HCT116 cells; 1 nM) [%] | MTD (C3H/HeJ mice; mouse, in vivo, ip) [mg/kg] | MTD at 45 days (in vivo) [mg/kg] | antitumor activity [1] | solubility in water [2] |
| --- | --- | --- | --- | --- | --- | --- | --- | --- |
| CC[C@@]1(OC(=O)CCN2C(=O)c3ccccc3C2=O)C(=O)OCc2c1cc1n(c2=O)Cc2cc3ccccc3nc2-1 [000503 (1), Camptothecin-20S-Ester of 3-Phthalimidopropionic Acid] | 150 | 95.24 | 0 | – | – | – | – | – |
| CC[C@@]1(OC(=O)CCN2CCN(c3cccc(C(F)(F)F)c3)CC2)C(=O)OCc2c1cc1n(c2=O)Cc2cc3ccccc3nc2-1 [001101 (6), Camptothecin-20S-ester of 3-[4-(3-trifluoromethylphenyl)-1-piperazinyl]-propionic acid] | 150 | 0 | 0 | 100 | – | – | – | – |
| CC[C@@]1(OC(=O)CCN2C(=O)c3cccc4c([N+](=O)[O-])ccc(c34)C2=O)C(=O)OCc2c1cc1n(c2=O)Cc2cc3ccccc3nc2-1 [001128 (4), Camptothecin-20S-Ester of 3-(4-Nitro-1,8-Naphthalimide)propionic Acid] | – | – | – | – | 150 | – | – | – |
| CC[C@@]1(OC(=O)CCN2CCN(c3cccc(OC)c3)CC2)C(=O)OCc2c1cc1n(c2=O)Cc2cc3ccccc3nc2-1 [001129 (8), Camptothecin-20S-ester of 3-[4-(3-methoxyphenyl)-1-piperazinyl]propionic Acid] | 150 | 0 | 0 | 73.26 | – | – | – | – |
| CC[C@@]1(OC(=O)CCN2CCN(Cc3ccccc3)CC2)C(=O)OCc2c1cc1n(c2=O)Cc2cc3ccccc3nc2-1 [001204 (7), Camptothecin-20s-ester of 3-[(4-benzyl)-1-piperazinyl]propionic Acid] | – | 0 | 0 | 64.04 | – | – | – | – |
| CCC1(OC(=O)CCN2C(=O)C=CC2=O)C(=O)OCc2c1cc1n(c2=O)Cc2cc3ccccc3nc2-1 (stereo not drawn) [010104 (2), Camptothecin-20S-Ester of 3-Maleimidopropionic Acid] | – | 95.54 | 0 | – | – | – | – | – |
| CC[C@@]1(OC(=O)CCN2CCN(c3ccc([N+](=O)[O-])cc3)CC2)C(=O)OCc2c1cc1n(c2=O)Cc2cc3ccccc3nc2-1 [010105 (9), Camptothecin-20S-ester of 3-[4-(4-nitrophenyl)-1-piperazinyl]propionic Acid] | – | 0 | 0 | 94.14 | – | – | – | – |
| CC[C@@]1(OC(=O)CCN2CCN(c3ccccc3Cl)CC2)C(=O)OCc2c1cc1n(c2=O)Cc2cc3ccccc3nc2-1 [010117 (11), Camptothecin-20S-ester of 3-[4-(2-chlorophenyl)-1-piperazinyl]propionic Acid] | – | 0 | 0 | 100 | – | – | – | – |
| CC[C@@]1(OC(=O)CCN2CCN(c3ccc(F)cc3)CC2)C(=O)OCc2c1cc1n(c2=O)Cc2cc3ccccc3nc2-1 [010124 (12), Camptothecin-20S-ester of 3-[4-(4-fluorophenyl)-1-piperazinyl]propionic Acid] | – | 0 | 0 | 100 | – | – | – | – |
| CC[C@@]1(O)C(=O)OCc2c1cc1n(c2=O)Cc2cc3ccccc3nc2-1 [Camptothecin, (S)-4-ethyl-4-hydroxy-1H-pyrano-[3′,4′:6,7]indolizinol[1,2-b]quinoline-3,14(4H, 12H)-dione] | – | 73.72 | 0 | – | – | 12 | antitumor activity | essentially insoluble |
| CCc1c2c(nc3ccc(OC(=O)N4CCC(N5CCCCC5)CC4)cc13)-c1cc3c(c(=O)n1C2)COC(=O)[C@]3(O)CC [Irinotecan, 7-ethyl-10[4-(1-piperidino)-1-piperidino]carbonyloxy CPT, reference compound] | – | – | 90.52 | – | – | – | – | – |
